Data as given in US12391662B2, “Lipid compounds and lipid nanoparticle compositions” (RINUAGENE BIOTECHNOLOGY CO., LTD., priority 2022, dated 2025).

Columns and labels:
[1] = LNP particle size and PDI (Malvern ZetaSizer); type: physicochemical; conditions: LNP of Compound:cholesterol:DSPC:DMG-PEG2000=50:38.5:10:1.5 encapsulating mRNA
Experimental: The mRNA stock solution was dispersed in 20 mM acetic acid solution (pH 5.0) to give a final concentration of 200 μg/mL (aqueous phase). […] The mRNA was mixed with the lipid mixture by T-mixing and controlling the flow rate of aqueous phase and oil phase (3:1) with a total flow rate of 12-50 ml/min, to obtain LNP-encapsulated mRNA. The encapsulated LNP was diluted with buffer (pH 5.0-5.5) and then concentrated by ultrafiltration with replacement of diluent, and finally LNP was concentrated to 200 μg/mL˜600 μg/mL of mRNA, while the pH of LNP was adjusted to about 7-8. […]

[2] = LNP mRNA encapsulation efficiency (Quant-iT RiboGreen RNA Assay Kit); type: physicochemical; conditions: LNP of Compound:cholesterol:DSPC:DMG-PEG2000=50:38.5:10:1.5 encapsulating mRNA
Experimental: The mRNA stock solution was dispersed in 20 mM acetic acid solution (pH 5.0) to give a final concentration of 200 μg/mL (aqueous phase). […] The mRNA was mixed with the lipid mixture by T-mixing and controlling the flow rate of aqueous phase and oil phase (3:1) with a total flow rate of 12-50 ml/min, to obtain LNP-encapsulated mRNA. The encapsulated LNP was diluted with buffer (pH 5.0-5.5) and then concentrated by ultrafiltration with replacement of diluent, and finally LNP was concentrated to 200 μg/mL˜600 μg/mL of mRNA, while the pH of LNP was adjusted to about 7-8. Finally, Quant-iT™ RiboGreen™ RNA Assay Kit (Invirtogen by Thermo Fisher Scientific, cat #R11490), and 10% Triton X-100 solution or 10% OTG solution as an emulsion breaker were used to detect the total and free content of mRNA in the LNP, and the encapsulation efficiency of LNP was calculated.

balb/c mice = experiment: Extrahepatic delivery of Luciferase mRNA LNPs after intravenous injection, organ fluorescence (liver, spleen, stomach, intestine tract); type: in vivo; conditions: 20 μg LNP intravenous, 24 hours, FIGS. 2A-2D, compared with MC3 and Compound 20A groups
Experimental: Five balb/c mice (Zhejiang Vital River Laboratory Animal Technology Co., Ltd, female, 6-8 weeks old, 18-20 g) were taken as a group, labeled with a black marker pen on the tail with numbers 1 # to 5 #; five mice in each group were sequentially injected intravenously with 20 μg of the lipid nanoparticle composition. The lipid nanoparticle compositions of the present invention were prepared according to Test Example 1, in which Luciferase mRNA was encapsulated. A phosphate buffered saline (PBS) group was set up in parallel as a blank control, and an MC3 group was set up as a reference (obtained by preparation according to the method and ratio of Test Example 1).
Fluorescence assay was performed for each group of mice at 24 hours after intravenous administration of the samples ([…] YEASEN,LOT:D5330150, IP, 150 mg/kg was administered 10 minutes in advance for each group), the mice were anesthetized, and then put into a small animal living optical imaging system-IVIS® Lumina LT Series III according to the orders from tail mark 1 # to 5 #. The whole-body fluorescence was detected to evaluate the delivery and the expression of the prepared Luciferase mRNA.
At the end of the test, the mice were sacrificed by cervical dislocation, and the liver, spleen, stomach, and intestine tract were harvested, and the organs were discharged according to the corresponding positions from 1 # to 5 # for fluorescence detection of the organs.

rats = experiment: Toxicity assay: serum ALT/AST and deaths after single intravenous dose of Luciferase mRNA LNPs; type: in vivo; conditions: LNP intravenous single dose 3 mg/kg; for aspartate aminotransferase and alanine aminotransferase values compared with MC3 and SM102 groups: serum 24 hours after administration, FIGS. 3A-3B; for animals that died during the test: five animals per group
Experimental: Animals were grouped according to body weight (five animals per group) one day before administration (Zhejiang Vital River Laboratory Animal Technology Co. Ltd, male, body weight: 170-220 g). […] Luciferase mRNA was encapsulated in said lipid nanoparticle compositions.
The administration volume is 10 mL/kg, and the administration dosage is 3 mg/kg.

SD rats = experiment: Toxicity assay: clinical markers 24 hours after intravenous LNP administration; type: in vivo; conditions: LNP intravenous 3 mg/kg, 24 hours after administration
Experimental: The nanoparticle samples containing different lipids were administered to rats (SD rats, Zhejiang Vital River Laboratory Animal Technology Co., Ltd, 3 males and 3 females per group, body weight: 220-300 g for female, 260-340 g for male) by intravenous injection at a dose of 3 mg/kg. The expression of various clinical markers was assessed at 24 hours after administration and compared with the expression induced by SM102 LNP formulation (i.e., LNP formulation made from the known SM102 lipid, which was prepared according to the method of Test Example 1 in the same ratio) as well as by phosphate buffered saline (PBS).

| PDI [1] | Particle Size [1] [nm] | Encapsulation Efficiency [2] [%] | SMILES | extrahepatic delivery effect (balb/c mice) | aspartate aminotransferase and alanine aminotransferase values compared with MC3 and SM102 groups (rats) | Alanine transaminase (SD rats) [U/L] | Aspartate transaminase (SD rats) [U/L] | animals that died during the test (rats) |
| --- | --- | --- | --- | --- | --- | --- | --- | --- |
| 0.02967 | 86.26 | 96.44 | CCCCCCCCCCCOC(=O)CCCCCC1(CCCCCCCC(=O)OC(CCCCCCCC)CCCCCCCC)OC[C@H](CCN(C)C)O1 (some centres unmarked) [Compound 2A] | significant extrahepatic delivery effects | lower than those of the groups of the ionizable lipids MC3 and SM102 |  |  |  |
| 0.1311 | 73.41 | 96.0 | CCCCCCCCCCC(=O)OCCCCCCC1(CCCCCCCC(=O)OC(CCCCCCCC)CCCCCCCC)OC[C@H](CCN(C)C)O1 (some centres unmarked) [Compound 5A] | significant extrahepatic delivery effects | lower than those of the groups of the ionizable lipids MC3 and SM102 |  |  |  |
| 0.1537 | 92.38 | 96.52 | CCCCCCCCCCC(=O)OCCCCCCC1(CCCCCCCCOC(=O)C(CCCCCCCC)CCCCCCCC)OCC(CN(C)C)O1 (centres unmarked) [Compound 7] |  |  |  |  |  |
| 0.1368 | 71.61 | 95.07 | CCCCCCCCCCC(=O)OCCCCCCC1(CCCCCCCCOC(=O)C(CCCCCCCC)CCCCCCCC)OCC(CN(C)C)CO1 (centres unmarked) [Compound 9] |  |  |  |  |  |
| 0.06 | 80.34 | 97.5 | CCCCCCCCCCCOC(=O)CCCCCC1(CCCCCCCC(=O)OC(CCCCCCCC)CCCCCCCC)OCC(CCN(CC)CC)O1 (centres unmarked) [Compound 11] |  |  |  |  |  |
| 0.03 | 71.68 | 97.6 | CCCCCCCCCCCOC(=O)CCCCCC1(CCCCCCCC(=O)OC(CCCCCCCC)CCCCCCCC)OCC(CCN(CC)C(C)C)O1 (centres unmarked) [Compound 16] |  |  |  |  |  |
| 0.34 | 110.3 | 93.3 | CCCCCCCCCCCOC(=O)CCCCCC1(CCCCCC(=O)OCCCCCCCCCCC)OCC(CCN(C)C)O1 (centres unmarked) [Compound 19] |  |  |  |  |  |
| 0.3138 | 92.89 | 96.8 | CCCCCCCCC(CCCCCC)C(=O)OCCCCCCC1(CCCCCCOC(=O)C(CCCCCC)CCCCCCCC)OCC(CCN(C)C)O1 (centres unmarked) [Compound 21] |  |  |  |  |  |

More lines, now with the values behind:

| SMILES | PDI [1] | Particle Size [1] [nm] | Encapsulation Efficiency [2] [%] | extrahepatic delivery effect (balb/c mice) | aspartate aminotransferase and alanine aminotransferase values compared with MC3 and SM102 groups (rats) | Alanine transaminase (SD rats) [U/L] | Aspartate transaminase (SD rats) [U/L] | animals that died during the test (rats) |
| --- | --- | --- | --- | --- | --- | --- | --- | --- |
| CCCCCCCCCCCOC(=O)CCCCCC1(CCCCCCCC(=O)OC(CCCCCCCC)CCCCCCCC)OCC(CN(C)C)CO1 (centres unmarked) [Compound 1] | 0.1125 | 66.97 | 97.22 |  |  |  |  |  |
| CCCCCCCCCCCOC(=O)CCCCCC1(CCCCCCCC(=O)OC(CCCCCCCC)CCCCCCCC)OCC(CCN(C)C)O1 (centres unmarked) [Compound 2] | 0.03414 | 70.27 | 92.32 |  |  | 116.27 | 342.17 |  |
| CCCCCCCCCCCOC(=O)CCCCCC1(CCCCCCCC(=O)OC(CCCCCCCC)CCCCCCCC)OCC(CN(C)C)O1 (centres unmarked) [Compound 3] | 0.1264 | 95.04 | 95.04 |  |  |  |  |  |
| CCCCCCCCCCC(=O)OCCCCCCC1(CCCCCCCC(=O)OC(CCCCCCCC)CCCCCCCC)OCC(CN(C)C)CO1 (centres unmarked) [Compound 4] | 0.1387 | 69.03 | 96.23 |  |  |  |  |  |
| CCCCCCCCCCC(=O)OCCCCCCC1(CCCCCCCC(=O)OC(CCCCCCCC)CCCCCCCC)OC[C@@H](CCN(C)C)O1 (some centres unmarked) [Compound 5B] | 0.04848 | 67.95 | 98.4 |  |  |  |  |  |
| CCCCCCCCCCC(=O)OCCCCCCC1(CCCCCCCC(=O)OC(CCCCCCCC)CCCCCCCC)OCC(CCN(C)C)O1 (centres unmarked) [Compound 5] | 0.04107 | 89.54 | 94.92 |  |  | 65.72 | 251.10 |  |
| CCCCCCCCCCC(=O)OCCCCCCC1(CCCCCCCC(=O)OC(CCCCCCCC)CCCCCCCC)OCC(CN(C)C)O1 (centres unmarked) [Compound 6] | 0.1676 | 69.85 | 95.50 |  |  |  |  |  |
| CCCCCCCCCCC(=O)OCCCCCCC1(CCCCCCCCOC(=O)C(CCCCCCCC)CCCCCCCC)OCC(CCN(C)C)O1 (centres unmarked) [Compound 8] | 0.09334 | 99.68 | 90.99 |  |  |  |  |  |
| CCCCCCCCCCCOC(=O)CCCCCC1(CCCCCCCC(=O)OC(CCCCCCCC)CCCCCCCC)OCC(CCN(C)CC)O1 (centres unmarked) [Compound 10] | 0.07 | 78.44 | 96.5 |  |  |  |  |  |
| CCCCCCCCCCCOC(=O)CCCCCC1(CCCCCCCC(=O)OC(CCCCCCCC)CCCCCCCC)OCC(CCCN(C)C)O1 (centres unmarked) [Compound 13] | 0.16 | 98.15 | 89.3 | significant extrahepatic delivery effects | lower than those of the groups of the ionizable lipids MC3 and SM102 |  |  |  |
| CCCCCCCCCCCOC(=O)CCCCCC1(CCCCCCCC(=O)OC(CCCCCCCC)CCCCCCCC)OCC(CCCCN(C)C)O1 (centres unmarked) [Compound 14] | 0.16 | 118.1 | 90.97 |  |  |  |  |  |
| CCCCCCCCCCCOC(=O)CCCCCC1(CCCCCCCC(=O)OC(CCCCCCCC)CCCCCCCC)OCC(CCN(C)CCC)O1 (centres unmarked) [Compound 15] | 0.10 | 61.73 | 97.2 |  |  |  |  |  |
| CCCCCCCCCCCNC(=O)CCCCCC1(CCCCCCCC(=O)NC(CCCCCCCC)CCCCCCCC)OCC(CCN(C)C)O1 (centres unmarked) [Compound 17] | 0.05 | 125.0 | 98.2 |  |  |  |  |  |
| CCCCCCCCC(CCCCCCCC)CC(=O)CCCCCCCC1(CCCCCCCC(=O)OC(CCCCCCCC)CCCCCCCC)OCC(CCN(C)C)O1 (centres unmarked) [Compound 18] | 0.10 | 69.23 | 96.5 |  |  |  |  |  |
| CCCCCC(CCCCC)CCOC(=O)CCCCCCCC1(CCCCCCCC(=O)OCCC(CCCCC)CCCCC)OC[C@H](CCN(C)C)O1 [Compound 20A] | 0.073 | 85.64 | 92.5 |  |  |  |  | all five rats in Compound 20A group died |
| CCCCC/C=C\C/C=C\CCCCCCCCC(CCCCCCCC/C=C\C/C=C\CCCCC)OC(=O)CCCN(C)C [MC3, reference compound] | 0.15 | 72.70 | 96.7 |  |  |  |  | four rats in the MC3 group died |
| CCCCCCCCCCCOC(=O)CCCCCN(CCO)CCCCCCCC(=O)OC(CCCCCCCC)CCCCCCCC [SM-102, reference compound] | 0.07 | 74.80 | 97.5 |  |  | 286.51 | 486.42 |  |
